SMILES strings stand for the structures.

Data set [1] is described as follows: Composite formation of AlGltn/TSC matrix containing amino acid derivative after immersion in water. It counts as physicochemical. The note with it: 100 mM amino acid derivative, 20 mM TSC, water at 4° C. for one day. Here is the method:
High-molecular-weight matrices formed from alkali-treated gelatin (AlGltn; derived from pig bone) and TSC (citric acid derivative), in which an amino acid derivative was contained, were prepared. By immersing in water, DMSO was replaced by water and the amino acid was precipitated. The behavior of the high-molecular-weight matrices after the precipitation was observed by each type and concentration of the amino acid.
400 μl of a DMSO solution containing 15 w/v % AlGltn and 10% lactic acid was added with an amino acid derivative to give 100 mM in a 2 ml tube. The mixture was agitated and degassed. 100 μl of a 10% lactic acid-containing DMSO was added with TSC at 20 mM (4.84 mg) and agitated. The solution made by addition of the amino acid derivative to the AlGltn/10% lactic acid-containing DMSO solution, agitation, and degasification, was added with the TSC/10% lactic acid-containing DMSO solution. The mixture was agitated for 30 seconds and then degassed for 30 seconds. After leaving still for one day, the resulting high-molecular-weight matrix was taken out and immersed in water at 4° C. for one day. The gel was taken out and its behavior was observed.

Data set [2] is described as follows: Am80 release from alkali-treated collagen composite materials in PBS, HPLC. The data set is classed as physicochemical. The note with it: PBS pH7.4, 37° C., in one day. Here is the method: The high-molecular-weight matrices containing the low-molecular-weight organic compound prepared in 2-1 mentioned above were dried in a desiccator and then heated in an oven at 80° C. for 10 min. These composite materials were used as samples for HPLC.
The thus produced high-molecular-weight matrices were each transferred in a 250 mL polyethylene container, and 200 mL of PBS (pH7.4) was added thereto. These were heated in an incubator at 37° C. The supernatant thereof was sampled in a time course manner, and 50 μL each was assayed by HPLC.
In the HPLC method, the Nacalai Tesque COSMOSIL Packed Column (Size: 4.6 I.D.×150 mm; Type: 5C18-AR II ATERS) was used as the column, and a 5% HOAc/CH3CN=35/65 (v/v) aqueous solution was used as the eluent. The flow rate was 1.00 mL/min, and the column temperature was 40.0° C. The detection was conducted by UV-visible spectroscopy.
The elusion amount was calculated based on a calibration curve that had been formed in advance. Three kinds of drug/PBS (pH7.4) solutions were prepared within a concentration range from 1.14 μM to 569 μM, and assayed by HPLC. The condition for this assay was the same as the above. […]
In the HPLC method, the Am80 elusion amount was calculated under the same conditions as for the above-mentioned method.

Take `CC(=O)NC(Cc1c[nH]c2ccccc12)C(N)=O` (stereo not shown) [AcTrpNH2]: the Composite formation entry in data set [1] is recorded as “Absent”.

For the molecule `CC(=O)N[C@@H](Cc1ccc(O)cc1)C(N)=O` [AcTyrNH2], in data set [1], the Composite formation entry is reported as “Absent”.

With `CC1(C)CCC(C)(C)c2cc(NC(=O)c3ccc(C(=O)O)cc3)ccc21` [Am80, Tamibarotene], the Am80 released in data set [2] stood at 49%.

Turning to `CC[C@H](C)[C@H](NC(=O)OCC1c2ccccc2-c2ccccc21)C(=O)O` [FmocIleOH], the Composite formation entry in data set [1] was “Present”.

For the molecule `O=C(N[C@@H](Cc1ccccc1)C(=O)O)OCC1c2ccccc2-c2ccccc21` [FmocPheOH], the Composite formation result in data set [1] is “Present”.

`CC(C)(C)OC[C@H](NC(=O)OCC1c2ccccc2-c2ccccc21)C(=O)O` [FmocSer(tBu)OH]: the Composite formation entry in data set [1] is “Present”.

Turning to `O=C(N[C@@H](Cc1c[nH]c2ccccc12)C(=O)O)OCC1c2ccccc2-c2ccccc21` [FmocTrpOH], the Composite formation result in data set [1] was “Present”.

Source of the values: patent US20110251281A1, “Composite Material Comprising High-Molecular-Weight Matrix and Low-Molecular-Weight Organic Compound and Process For Producing Same” (NATIONAL INSTITUTE FOR MATERIALS SCIENCE, priority 2008, published 2011).
